Data from patent US20220089575A1, “FARNESOID X RECEPTOR AGONISTS AND USES THEREOF” (Metacrine, Inc., priority 2017, published 2022).
One block for each compound: values may come before it.

Molecular target: T1, hFXR (Homo sapiens, UniProt Q96RI1)
T1 construct: expressed in transfected cells; host or cells: CV-1 cells
T1 sequence (Q96RI1 1-486): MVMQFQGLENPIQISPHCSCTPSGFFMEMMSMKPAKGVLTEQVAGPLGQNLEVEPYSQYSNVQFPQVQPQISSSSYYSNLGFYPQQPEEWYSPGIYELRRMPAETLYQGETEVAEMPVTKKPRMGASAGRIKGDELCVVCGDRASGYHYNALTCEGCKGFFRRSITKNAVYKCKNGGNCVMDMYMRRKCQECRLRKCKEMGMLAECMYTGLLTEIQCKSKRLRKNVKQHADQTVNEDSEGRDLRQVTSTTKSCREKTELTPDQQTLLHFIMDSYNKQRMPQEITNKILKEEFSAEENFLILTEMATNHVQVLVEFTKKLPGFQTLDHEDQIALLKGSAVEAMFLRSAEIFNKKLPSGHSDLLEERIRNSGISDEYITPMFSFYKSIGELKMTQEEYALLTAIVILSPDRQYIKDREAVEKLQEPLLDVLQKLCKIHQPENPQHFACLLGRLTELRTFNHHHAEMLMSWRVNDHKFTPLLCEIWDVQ
T1 sequence (P19793 1-462 partner): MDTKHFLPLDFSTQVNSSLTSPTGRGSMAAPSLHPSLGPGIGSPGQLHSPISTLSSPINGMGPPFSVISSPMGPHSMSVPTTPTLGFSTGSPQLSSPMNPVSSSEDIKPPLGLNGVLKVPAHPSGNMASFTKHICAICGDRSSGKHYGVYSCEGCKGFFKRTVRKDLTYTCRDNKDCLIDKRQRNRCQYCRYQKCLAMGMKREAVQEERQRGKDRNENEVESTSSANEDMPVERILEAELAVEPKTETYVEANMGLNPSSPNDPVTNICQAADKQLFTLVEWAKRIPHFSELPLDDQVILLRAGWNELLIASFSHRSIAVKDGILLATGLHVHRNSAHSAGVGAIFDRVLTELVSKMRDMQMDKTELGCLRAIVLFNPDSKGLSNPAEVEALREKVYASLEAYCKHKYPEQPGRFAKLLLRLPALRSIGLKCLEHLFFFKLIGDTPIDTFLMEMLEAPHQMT
Test: In Vitro FXR Assay (TK): TK-ECRE-luc reporter in transfected CV-1 cells
Format: cell-based
Conditions: 18 hrs, luminescence, maximum efficacy of <25% of the Fexarmine control classified as '+'
Summary of the method: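 Reporter transactivation by hFXR was measured in CV-1 cells carrying hRXR and a TK-ECRE-luc construct, with compound treatment for 18 h before lysis and luminescence detection.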

Compound: COC(=O)[C@H]1CC[C@H](C(=O)N(C[C@H]2CC[C@H](c3ccc(N(C)C)nc3)CC2)c2cccc(-c3cnn(C4CC4)c3)c2)CC1 [Compound 18.14, trans-Methyl 4-((3-(1-cyclopropyl-1H-pyrazol-4-yl)phenyl)((trans-4-(6-(dimethylamino)pyridin-3-yl)cyclohexyl)methyl)carbamoyl) cyclohexanecarboxylate]
- EC50: ≤ 250 nM

Compound: COc1ccc(C23CCC(CN(c4cccc(-c5cnn(C6CC6)c5)c4)C(=O)[C@H]4CC[C@H](NC(=O)OC(C)(C)C)CC4)(CC2)CC3)cc1C [Compound 18.15, tert-Butyl (4-((3-(1-cyclopropyl-1H-pyrazol-4-yl)phenyl)((4-(4-methoxy-3-methylphenyl)bicyclo[2.2.2]octan-1-yl)methyl)carbamoyl)cyclohexyl) trans-carbamate]
- EC50: ≤ 250 nM

Compound: COc1ccc([C@H]2CC[C@H](CN(c3cccc(-c4cnn(C(C)C)c4)c3)C(=O)[C@H]3CC[C@H](NC(=O)OC(C)(C)C)CC3)CC2)cc1C [Compound 18.16, tert-Butyl (trans-4-((3-(1-isopropyl-1H-pyrazol-4-yl)phenyl)((trans-4-(4-methoxy-3-methylphenyl)cyclohexyl)methyl)carbamoyl)cyclohexyl) carbamate]
- EC50: ≤ 250 nM

Compound: COc1ccc([C@H]2CC[C@H](CN(c3cc(-c4cnn(C5CC5)c4)ccn3)C(=O)[C@H]3CC[C@H](C(=O)OC)CC3)CC2)nc1C [Compound 18.17, trans-Methyl 4-((4-(1-cyclopropyl-1H-pyrazol-4-yl)pyridin-2-yl)((trans-4-(5-methoxy-6-methylpyridin-2-yl)cyclohexyl)methyl)carbamoyl) cyclohexanecarboxylate]
- EC50: 250 to 1000 nM

Compound: CCOC(=O)C[C@H]1CC[C@H](C(=O)N(C[C@H]2CC[C@H](c3ccc(OC)c(C)n3)CC2)c2cc(-c3cnn(C4CC4)c3)ccn2)CC1 [Compound 18.18, Ethyl 2-(trans-4-((4-(1-cyclopropyl-1H-pyrazol-4-yl)pyridin-2-yl)((trans-4-(5-methoxy-6-methylpyridin-2-yl)cyclohexyl)methyl)carbamoyl)cyclohexyl)acetate]
- EC50: ≤ 250 nM

Compound: COc1ccc([C@H]2CC[C@H](CN(c3cccc(-c4cnn(C5CC5)c4)c3)C(=O)[C@H]3CC[C@H](C(=O)OC)CC3)CC2)nc1C [Compound 18.19, trans-Methyl 4-((3-(1-cyclopropyl-1H-pyrazol-4-yl)phenyl)((trans-4-(5-methoxy-6-methylpyridin-2-yl)cyclohexyl)methyl)carbamoyl) cyclohexanecarboxylate]
- EC50: ≤ 250 nM

Compound: CCOC(=O)C[C@H]1CC[C@H](C(=O)N(C[C@H]2CC[C@H](c3ccc(OC)c(C)n3)CC2)c2cc(-c3cnn(C(C)C)c3)ccn2)CC1 [Compound 18.20, Ethyl 2-(trans-4-((4-(1-isopropyl-1H-pyrazol-4-yl)pyridin-2-yl)((trans-4-(5-methoxy-6-methylpyridin-2-yl)cyclohexyl)methyl)carbamoyl)cyclohexyl)acetate]
- EC50: ≤ 250 nM

Compound: CCOC(=O)C[C@H]1CC[C@H](C(=O)N(C[C@H]2CC[C@H](c3ccc(OC)c(C#N)c3)CC2)c2cc(-c3cnn(C(C)C)c3)ccn2)CC1 [Compound 18.21, Ethyl 2-(trans-4-(((trans-4-(3-cyano-4-methoxyphenyl)cyclohexyl)methyl)(4-(1-isopropyl-1H-pyrazol-4-yl)pyridin-2-yl)carbamoyl)cyclohexyl)acetate]
- EC50: ≤ 250 nM

Compound: CCOC(=O)C[C@H]1CC[C@H](C(=O)N(C[C@H]2CC[C@H](c3ccc(OC)c(C#N)n3)CC2)c2cc(-c3cnn(C(C)C)c3)ccn2)CC1 [Compound 18.22, Ethyl 2-(trans-4-(((trans-4-(6-cyano-5-methoxypyridin-2-yl)cyclohexyl)methyl)(4-(1-isopropyl-1H-pyrazol-4-yl)pyridin-2-yl)carbamoyl)cyclohexyl) acetate]
- EC50: ≤ 250 nM

Compound: COc1ccc([C@H]2CC[C@H](CN(c3cc(-c4coc(C5CC5)n4)ccn3)C(=O)[C@H]3CC[C@H](C(=O)OC)CC3)CC2)nc1C [Compound 18.23, trans-Methyl 4-((4-(2-cyclopropyloxazol-4-yl)pyridin-2-yl) ((trans-4-(5-methoxy-6-methylpyridin-2-yl)cyclohexyl)methyl)carbamoyl) cyclohexanecarboxylate]
- EC50: ≤ 250 nM

Compound: COc1ccc([C@H]2CC[C@H](CN(c3cccc(-c4coc(C5CC5)n4)c3)C(=O)[C@H]3CC[C@H](C(=O)OC)CC3)CC2)nc1C#N [Compound 18.24, trans-Methyl 4-(((trans-4-(6-cyano-5-methoxypyridin-2-yl)cyclohexyl)methyl)(3-(2-cyclopropyloxazol-4-yl)phenyl)carbamoyl) cyclohexanecarboxylate]
- EC50: ≤ 250 nM

Compound: COc1ccc([C@H]2CC[C@H](CN(c3cccc(-c4cnc(C5CC5)s4)c3)C(=O)[C@H]3CC[C@H](CC(=O)O)CC3)CC2)cc1C [Compound 19, 2-(trans-4-((3-(2-Cyclopropylthiazol-5-yl)phenyl)((trans-4-(4-methoxy-3-methylphenyl)cyclohexyl)methyl)carbamoyl)cyclohexyl)acetic acid]
- EC50: ≤ 250 nM

Compound: COc1ccc([C@H]2CC[C@H](CN(c3cccc(-c4cnc(C5CC5)s4)c3)C(=O)[C@H]3CC[C@H](CC(=O)O)CC3)CC2)cc1C#N [Compound 20, 2-(trans-4-(((trans-4-(3-Cyano-4-methoxyphenyl)cyclohexyl)methyl)(3-(2-cyclopropylthiazol-5-yl)phenyl)carbamoyl)cyclohexyl)acetic acid]
- EC50: ≤ 250 nM

More lines, now with the values ahead:

- EC50: ≤ 250 nM
Compound: COc1ccc([C@H]2CC[C@H](CN(c3cccc(-c4cnc(C5CC5)s4)c3)C(=O)[C@H]3CC[C@H](CC(=O)O)CC3)CC2)nc1C#N [Compound 20.01, 2-(trans-4-(((trans-4-(6-Cyano-5-methoxypyridin-2-yl)cyclohexyl)methyl)(3-(2-cyclopropylthiazol-5-yl)phenyl)carbamoyl)cyclohexyl) acetic acid]

- EC50: ≤ 250 nM
Compound: COc1ccc([C@H]2CC[C@H](CN(c3cc(-c4cnc(C5CC5)s4)ccn3)C(=O)[C@H]3CC[C@H](CC(=O)O)CC3)CC2)cc1C [Compound 20.02, 2-(trans-4-((4-(2-Cyclopropylthiazol-5-yl)pyridin-2-yl)((trans-4-(4-methoxy-3-methylphenyl)cyclohexyl)methyl)carbamoyl)cyclohexyl)acetic acid]

- EC50: ≤ 250 nM
Compound: COc1ccc([C@H]2CC[C@H](CN(c3cccc(-c4cnc(C5CC5)s4)c3)C(=O)[C@H]3CC[C@H](CC(=O)O)CC3)CC2)nc1C [Compound 20.03, 2-(trans-4-((3-(2-Cyclopropylthiazol-5-yl)phenyl)((trans-4-(5-methoxy-6-methylpyridin-2-yl)cyclohexyl)methyl)carbamoyl)cyclohexyl)acetic acid]

- EC50: ≤ 250 nM
Compound: COc1ccc([C@H]2CC[C@H](CN(c3cc(-c4cnc(C5CC5)s4)ccn3)C(=O)[C@H]3CC[C@H](CC(=O)O)CC3)CC2)nc1C [Compound 20.04, 2-(trans-4-((4-(2-Cyclopropylthiazol-5-yl)pyridin-2-yl)((trans-4-(5-methoxy-6-methylpyridin-2-yl)cyclohexyl)methyl)carbamoyl)cyclohexyl)acetic acid]

- EC50: ≤ 250 nM
Compound: COc1ccc([C@H]2CC[C@H](CN(c3cc(-c4cnc(C5CC5)s4)ccn3)C(=O)[C@H]3CC[C@H](CC(=O)O)CC3)CC2)cc1C#N [Compound 20.05, 2-(trans-4-(((trans-4-(3-Cyano-4-methoxyphenyl)cyclohexyl)methyl)(4-(2-cyclopropylthiazol-5-yl)pyridin-2-yl)carbamoyl)cyclohexyl)acetic acid]

- EC50: ≤ 250 nM
Compound: CN(C)c1ccc([C@H]2CC[C@H](CN(c3cccc(-c4cnc(C5CC5)s4)c3)C(=O)[C@H]3CC[C@H](CC(=O)O)CC3)CC2)cn1 [Compound 20.06, 2-(trans-4-((3-(2-Cyclopropylthiazol-5-yl)phenyl)((trans-4-(6-(dimethylamino)pyridin-3-yl)cyclohexyl)methyl)carbamoyl)cyclohexyl)acetic acid]

- EC50: ≤ 250 nM
Compound: COc1ccc([C@H]2CC[C@H](CN(c3cccc(-c4cnc(C(C)C)s4)c3)C(=O)[C@H]3CC[C@H](CC(=O)O)CC3)CC2)nc1C [Compound 20.07, 2-(trans-4-((3-(2-Isopropylthiazol-5-yl)phenyl)((trans-4-(5-methoxy-6-methylpyridin-2-yl)cyclohexyl)methyl)carbamoyl)cyclohexyl) acetic acid]

- EC50: ≤ 250 nM
Compound: COc1ccc(C23CCC(CN(c4cc(-c5cnn(C6CC6)c5)ccn4)C(=O)[C@H]4CC[C@H](CC(=O)O)CC4)(CC2)CC3)cc1C [Compound 20.08, trans-2-(4-((4-(1-Cyclopropyl-1H-pyrazol-4-yl)pyridin-2-yl)((4-(4-methoxy-3-methylphenyl)bicyclo [2.2.2]octan-1-yl)methyl)carbamoyl)cyclohexyl)acetic acid]
